In DBAASP one finds MIC data, which are given here for nine compounds.

Each structure is given as a SMILES string. Converted amounts (≈) assume the structure as drawn. A value given as a limit tells only on which side of the number the result lay.

Test systems include Escherichia coli K88; Acinetobacter baumannii; Klebsiella pneumoniae; Escherichia coli; Escherichia coli UB1005; Escherichia coli K99; Pseudomonas aeruginosa; Candida albicans.
Holding throughout (experiment): ≥ marks a high value that may be exact or a test limit, other limits are often not marked, values filed in µg/mL are converted to µM
Test [1] relates to Escherichia coli ATCC 25922.
The test system of test [2] is Pseudomonas aeruginosa CICC 21630.
For test [3], the system named is Salmonella enterica subsp. enterica serovar Pullorum C79-13.
Test [4] deals with Pseudomonas aeruginosa CICC 21625.
For test [5], the system named is Pseudomonas aeruginosa ATCC 27853.
Test [6] relates to Salmonella enterica subsp. enterica serovar Typhimurium ATCC 14028.
Test [7] relates to Salmonella enterica subsp. enterica serovar Typhimurium C77-31.
The subject of test [8] is Pseudomonas aeruginosa PAO1.
Test [9] deals with Enterococcus faecalis ATCC 29212.
Test [10] deals with Salmonella enterica serovar Typhimurium.
Test [11] has as its system Staphylococcus epidermidis.
Test [12] relates to Staphylococcus aureus ATCC 25923.
In test [13] the test system is Pseudomonas aeruginosa H103.
Test [14] relates to Escherichia coli NCTC 10418.
Test [15] relates to Staphylococcus aureus NCTC 10788.
For test [16], the system named is Candida albicans NCPF 1467.

A word on the MIC: it is the least concentration at which growth counts as inhibited. A higher MIC goes with a need for much substance. Turning to `CC[C@H](C)[C@H](N)C(=O)N[C@@H](CCCCN)C(=O)N1CCC[C@H]1C(=O)N[C@H](C(=O)N[C@H](C(=O)N[C@@H](CCCCN)C(=O)N1CCC[C@H]1C(=O)N[C@H](C(=O)N[C@H](C(=O)N[C@@H](CCCCN)C(=O)N1CCC[C@H]1C(=O)N[C@H](C(=O)N[C@H](C(=O)N[C@@H](CCCCN)C(=O)N1CCC[C@H]1C(=O)N[C@H](C(=O)N[C@H](C(=O)N[C@@H](CCCCN)C(=O)N1CCC[C@H]1C(=O)N[C@H](C(=O)N[C@H](C(=O)N[C@@H](CCCCN)C(=O)N1CCC[C@H]1C(=O)N[C@H](C(=O)N[C@H](C(=O)N[C@@H](CCCCN)C(=O)N1CCC[C@H]1C(=O)N[C@H](C(N)=O)[C@@H](C)CC)[C@@H](C)CC)[C@@H](C)CC)[C@@H](C)CC)[C@@H](C)CC)[C@@H](C)CC)[C@@H](C)CC)[C@@H](C)CC)[C@@H](C)CC)[C@@H](C)CC)[C@@H](C)CC)[C@@H](C)CC)[C@@H](C)CC` [IKPIIKPIIKPIIKPIIKPIIKPIIKPI], the MIC in test [1] was 8 µM (≈ 25.4 µg/mL); against Escherichia coli K88 it was 2 µM (≈ 6.36 µg/mL); in test [2] it was at least 64 µM; with Acinetobacter baumannii, 2 µM (≈ 6.36 µg/mL); in the test on Klebsiella pneumoniae, 16 µM (≈ 50.9 µg/mL); in test [3], at least 64 µM. For the same compound, the MIC in [4] was at least 64 µM; with Escherichia coli, 16 µM (≈ 50.9 µg/mL); in test [5], above 64 µM; against Escherichia coli UB1005, 16 µM (≈ 50.9 µg/mL); in test [6], 64 µM (≈ 203 µg/mL); in [7] it was at least 64 µM. Moreover, the MIC in the test with Escherichia coli K99 was 2 µM (≈ 6.36 µg/mL); in [8] it was above 64 µM; in the test on Pseudomonas aeruginosa, above 64 µM.
Take `CC[C@H](C)[C@H](NC(=O)[C@H](CCCCN)NC(=O)[C@H](CCCN=C(N)N)NC(=O)[C@H](Cc1c[nH]c2ccccc12)NC(=O)[C@H](Cc1c[nH]c2ccccc12)NC(=O)[C@H](Cc1c[nH]c2ccccc12)NC(=O)[C@H](CCCCN)NC(=O)[C@H](Cc1c[nH]c2ccccc12)NC(=O)[C@@H](N)CCCCN)C(=O)O` [KWKWWWRKI]: the MIC in test [9] is 4.6 µM (≈ 6.52 µg/mL); in test [10], 4.6 µM (≈ 6.52 µg/mL); in the test with Escherichia coli UB1005, 4.6 µM (≈ 6.52 µg/mL); in test [11] it was 1.2 µM (≈ 1.7 µg/mL); in the test on Candida albicans, 4.6 µM (≈ 6.52 µg/mL); in test [12] it was 1.2 µM (≈ 1.7 µg/mL). Besides, the MIC in test [13] was 4.6 µM (≈ 6.52 µg/mL).
Regarding `CC[C@H](C)[C@H](NC(=O)[C@H](CCCN=C(N)N)NC(=O)[C@@H](NC(=O)[C@H](Cc1c[nH]c2ccccc12)NC(=O)[C@H](CCCN=C(N)N)NC(=O)[C@H](CCCN=C(N)N)NC(=O)[C@@H](N)CC(C)C)[C@@H](C)CC)C(=O)N[C@@H](CCCN=C(N)N)C(=O)N[C@@H](Cc1c[nH]c2ccccc12)C(=O)O` [LRRWIRIRW], the MIC in [9] is 5.4 µM (≈ 7.32 µg/mL); in test [10], 5.4 µM (≈ 7.32 µg/mL); against Escherichia coli UB1005 it was 0.7 µM (≈ 0.948 µg/mL); in test [11], 0.883 µM (≈ 1.2 µg/mL); in the test on Candida albicans it was 10.7 µM (≈ 14.5 µg/mL); in [12] it was 1.3 µM (≈ 1.76 µg/mL). Also, the MIC in test [13] stood at 21.4 µM (≈ 29 µg/mL).
For `CC[C@H](C)[C@H](NC(=O)[C@H](CCCN=C(N)N)NC(=O)[C@H](CC(C)C)NC(=O)[C@H](CCCN=C(N)N)NC(=O)[C@@H](N)C(C)C)C(=O)N[C@@H](CCCN=C(N)N)C(=O)N[C@H](C(=O)N[C@@H](CCCN=C(N)N)C(=O)N[C@H](C(=O)N[C@H](C(=O)N[C@@H](CCCN=C(N)N)C(=O)N[C@@H](CCCCN)C(=O)O)[C@@H](C)CC)C(C)C)C(C)C` [VRLRIRVRVIRK], the minimal inhibitory concentration (MIC) in [9] is 4 µM (≈ 6.26 µg/mL); in test [10], 2 µM (≈ 3.13 µg/mL); against Escherichia coli UB1005, 2 µM (≈ 3.13 µg/mL); in [11], 1 µM (≈ 1.56 µg/mL); with Candida albicans, 8 µM (≈ 12.5 µg/mL); in test [12] it was 1 µM (≈ 1.56 µg/mL). In [13], this compound registered an MIC of 2 µM (≈ 3.13 µg/mL).
As to `CC(C)C[C@H](NC(=O)[C@@H]1CCCN1C(=O)[C@H](CCCN=C(N)N)NC(=O)[C@H](CC(C)C)NC(=O)[C@H](CC(C)C)NC(=O)[C@@H]1CCCN1C(=O)[C@H](CCCN=C(N)N)NC(=O)[C@H](CC(C)C)NC(=O)[C@H](CC(C)C)NC(=O)[C@@H]1CCCN1C(=O)[C@H](CCCN=C(N)N)NC(=O)[C@H](CC(C)C)NC(=O)[C@H](CC(C)C)NC(=O)[C@@H]1CCCN1C(=O)[C@H](CCCN=C(N)N)NC(=O)[C@@H](N)CC(C)C)C(N)=O` [LRPLLRPLLRPLLRPL], the MIC was 8 µM (≈ 15.5 µg/mL) in test [1]; 8 µM (≈ 15.5 µg/mL) in the test with Escherichia coli K88; at least 64 µM in [2]; 2 µM (≈ 3.87 µg/mL) against Acinetobacter baumannii; above 64 µM in the test with Klebsiella pneumoniae; 8 µM (≈ 15.5 µg/mL) in [3]. The MIC in test [4] was at least 64 µM; against Escherichia coli, 16 µM (≈ 31 µg/mL); in test [5], above 64 µM; in the test on Escherichia coli UB1005, at least 32 µM; in [6], 32 µM (≈ 61.9 µg/mL); in [7] it was at least 64 µM. Further, the minimal inhibitory concentration (MIC) in the test with Escherichia coli K99 was at least 32 µM; in test [8], above 64 µM; against Pseudomonas aeruginosa, above 64 µM.
For `CC[C@H](C)[C@H](NC(=O)[C@H](C)NC(=O)[C@H](CCCCN)NC(=O)[C@@H]1CCCN1C(=O)[C@@H](NC(=O)[C@H](CC(C)C)NC(=O)[C@H](CCCCN)NC(=O)[C@H](Cc1ccccc1)NC(=O)[C@H](CC(C)C)NC(=O)[C@@H](N)Cc1ccccc1)[C@@H](C)CC)C(=O)N[C@@H](CCCCN)C(=O)NCC(=O)N[C@@H](CC(C)C)C(=O)N[C@H](C(=O)N[C@@H](CCCCN)C(=O)N[C@@H](C)C(=O)N[C@H](C(=O)N[C@@H](CCCN=C(N)N)C(=O)N[C@@H](CCCCN)C(N)=O)[C@@H](C)CC)C(C)C` [FLFKLIPKAIKGLVKAIRK], the MIC was found to be 7.33 µM (≈ 16 µg/mL) in [14], 1.83 µM (≈ 4 µg/mL) in test [15] and 1.83 µM (≈ 4 µg/mL) in test [16].
Turning to `NCCCC[C@H](NC(=O)[C@H](CCCN=C(N)N)NC(=O)[C@H](Cc1c[nH]c2ccccc12)NC(=O)[C@H](Cc1c[nH]c2ccccc12)NC(=O)[C@H](CCCN=C(N)N)NC(=O)[C@@H](N)CCCCN)C(=O)N[C@@H](Cc1c[nH]c2ccccc12)C(=O)N[C@@H](Cc1c[nH]c2ccccc12)C(=O)N[C@@H](CCCN=C(N)N)C(=O)O` [KRWWRKWWR], the MIC in test [9] came to 10.8 µM (≈ 16.1 µg/mL); in [10], 5.4 µM (≈ 8.03 µg/mL); in the test on Escherichia coli UB1005, 2.7 µM (≈ 4.02 µg/mL); in test [11], 0.7 µM (≈ 1.04 µg/mL); with Candida albicans, 5.4 µM (≈ 8.03 µg/mL); in test [12], 0.7 µM (≈ 1.04 µg/mL). The compound also displayed an MIC in test [13] of at least 43.2 µM.
Consider `CC[C@H](C)[C@H](NC(=O)[C@H](CCCCN)NC(=O)[C@H](CCCCN)NC(=O)[C@@H](NC(=O)[C@H](CC(C)C)NC(=O)[C@H](CCCCN)NC(=O)[C@@H]1CCCN1C(=O)[C@@H](NC(=O)[C@H](CC(C)C)NC(=O)[C@H](CO)NC(=O)[C@H](CC(C)C)NC(=O)[C@@H](N)Cc1ccccc1)[C@@H](C)CC)C(C)C)C(=O)N[C@H](C(=O)N[C@@H](CCCCN)C(=O)N[C@@H](C)C(=O)N[C@@H](Cc1ccccc1)C(=O)N[C@@H](CCCCN)C(=O)O)[C@@H](C)CC` [FLSLIPKLVKKIIKAFK], for which the MIC came to 5 µM (≈ 9.93 µg/mL) in test [14], 2.5 µM (≈ 4.97 µg/mL) in test [15] and 2.5 µM (≈ 4.97 µg/mL) in test [16].
For `CC[C@H](C)[C@H](NC(=O)[C@H](C)NC(=O)[C@@H]1CCCN1C(=O)[C@H](CC(C)C)NC(=O)[C@@H](N)Cc1ccccc1)C(=O)N[C@@H](C)C(=O)NCC(=O)N[C@H](C(=O)N[C@@H](C)C(=O)N[C@@H](C)C(=O)N[C@@H](CCCCN)C(=O)N[C@@H](Cc1ccccc1)C(=O)N[C@@H](CC(C)C)C(=O)N1CCC[C@H]1C(=O)N[C@@H](CCCCN)C(=O)N[C@H](C(=O)N[C@@H](Cc1ccccc1)C(=O)N[C@H]1CSSC[C@@H](C(=O)O)NC(=O)[C@H](CCCCN)NC(=O)[C@H](CCCCN)NC(=O)[C@H]([C@@H](C)O)NC(=O)[C@H]([C@@H](C)CC)NC(=O)[C@H](C)NC1=O)[C@@H](C)CC)C(C)C` [FLPAIAGVAAKFLPKIFCAITKKC], the MIC was found to be 25.1 µM (≈ 64 µg/mL) in test [14], 6.28 µM (≈ 16 µg/mL) in [15] and 3.14 µM (≈ 8 µg/mL) in [16].
